Data as given in patent US20250009745A1, “CDK INHIBITOR” (SHANGHAI QILU PHARMACEUTICAL RESEARCH AND DEVELOPMENT …, priority 2021, published 2025).

Key:
[1] = biological target: T1, CDK2 (Homo sapiens, UniProt P24941); assay: CDK enzymology experiment in vitro, capillary mobility shift assay (MSA); type: biochemical; conditions: read-out: CDK2 (nM) inhibitory IC50
T1 construct: purchased Carna Company
Description: (§1) CDK1/CDK2/CDK4/CDK6/CDK7/CDK9 were purchased from Carna Company; Carliper substrate CTD3/substrate 18/substrate 8 were purchased from Gil Biochemical Company; Dinaciclib/Palbociclib were purchased from Selleckchem Company; DMSO was purchased from Sigma Company; 384-well plates were purchased from Corning Company.
(§2) • (1) Preparation of 1×Kinase buffer. • (2) Preparation of compound concentration gradient: Test concentration of the test compound was started at 1 μM, 10 μM or 30 μM, 3-fold dilution, 10 concentrations, detected in duplicate. The test compound was diluted to a 100-fold final concentration with 100% DMSO solution in a 384 source plate. Liquid handler Echo 550 was used to transfer 250 nL of 100-fold final concentration of the compound to the target plate 384-well plate. […] The 384-well plate was centrifuged at 1000 rpm for 30 seconds, and shaken to mix uniformly. • (10) The conversion rate was read with Caliper EZ Reader.
(§3) Where, conversion %_sample is the readings of conversion rate of the sample; conversion %_min: the average value of negative control wells, representing the readings of conversion rate of wells without enzyme activity; conversion %_max: the average value of positive control wells, representing the readings of conversion rate of wells without compound inhibition.
(§4) Taking the log value of the concentration as the X-axis, and the percentage inhibition rate as the Y-axis, the dose-effect curve was fitted using the log(inhibitor) vs. response—Variable slope of the analysis software GraphPad Prism 5 so as to obtain the IC50 value of each compound on the enzyme activity.
(§5) Y=Bottom+(Top−Bottom)/(1+10^((Log IC50−X)*HillSlope)). Calculation formula: […]

[2] = biological target: T2, CDK4 (Homo sapiens, UniProt P11802); assay: as above; type: biochemical; conditions: read-out: CDK4 (nM) inhibitory IC50
T2 construct: purchased Carna Company
Description: as §1, §2, §3, §4, §5

T2 sequence (P11802 whole entry): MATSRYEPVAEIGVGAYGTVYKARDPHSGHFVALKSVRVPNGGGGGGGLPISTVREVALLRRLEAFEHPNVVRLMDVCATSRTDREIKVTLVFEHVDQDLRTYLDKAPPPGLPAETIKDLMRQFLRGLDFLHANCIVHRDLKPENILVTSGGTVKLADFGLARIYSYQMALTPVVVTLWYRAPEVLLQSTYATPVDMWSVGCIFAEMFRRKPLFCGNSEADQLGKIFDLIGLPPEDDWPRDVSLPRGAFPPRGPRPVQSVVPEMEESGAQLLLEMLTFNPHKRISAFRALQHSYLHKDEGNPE
T2 sequence (P30281 whole entry partner): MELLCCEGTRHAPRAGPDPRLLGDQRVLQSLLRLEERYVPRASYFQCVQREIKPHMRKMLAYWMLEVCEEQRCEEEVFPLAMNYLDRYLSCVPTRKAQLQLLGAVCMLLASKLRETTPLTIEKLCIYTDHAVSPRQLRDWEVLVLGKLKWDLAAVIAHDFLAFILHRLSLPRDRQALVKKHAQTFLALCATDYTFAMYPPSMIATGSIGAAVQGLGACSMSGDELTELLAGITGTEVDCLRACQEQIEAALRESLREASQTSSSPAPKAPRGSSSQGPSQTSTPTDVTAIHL

Row | SMILES | IC50 [1] | IC50 [2]
1 | Cn1cc(S(=O)(=O)N2CCC(Nc3ncc(C#N)c(C=C4CCCC4)n3)CC2)cn1 [Example 9, 4-(Cyclopentylidenemethyl)-2-((1-((1-methyl-1H-pyrazol-4-yl)sulfonyl)piperidin-4-yl)amino)pyrimidine-5-carbonitrile] | 0.5 to 2.5 nM | 10 to 50 nM
2 | Cn1cc(-c2ccc(S(=O)(=O)N3CCC(Nc4cc(N[C@H]5CCOC5)c(C#N)cn4)CC3)cc2)cn1 [Compound 166] | 0.5 to 2.5 nM | 2.5 to 10 nM
3 | O=S(=O)(c1ccc(C2=CCNCC2)cc1)N1CCC(Nc2ncc(C(F)(F)F)c(N[C@@H]3CCC[C@H]3O)n2)CC1 [Compound 102] | 0.5 to 2.5 nM | 2.5 to 10 nM
4 | NC(=O)Cn1cc(S(=O)(=O)N2CCC(Nc3ncc(C(F)(F)F)c(O[C@H]4CCOC4)n3)CC2)cn1 [Compound 134] | < 0.5 nM | 10 to 50 nM
5 | Cn1cc(S(=O)(=O)N2CCC(Nc3ncc(C#N)c(NC4CCCCC4)n3)CC2)cn1 [Compound 79] | 2.5 to 10 nM | 10 to 50 nM
6 | Cn1cc(S(=O)(=O)N2CCC(Nc3ncc(C(F)(F)F)c(O[C@@H]4COC[C@@H]4F)n3)CC2)cn1 [Compound 124] | 2.5 to 10 nM | 100 to 1000 nM
7 | CN1CC[C@@H](Nc2nc(NC3CCN(S(=O)(=O)c4cnn(C)c4)CC3)ncc2C#N)C1 [Compound 71] | 2.5 to 10 nM | 10 to 50 nM
8 | O=S(=O)(c1cnn(C2CCOCC2)c1)N1CCC(Nc2ncc(C(F)(F)F)c(O[C@H]3CCOC3)n2)CC1 [Compound 108] | 0.5 to 2.5 nM | 2.5 to 10 nM
9 | CS(=O)(=O)N1CCC(Nc2ncc(C#N)c(-c3ccccc3)n2)CC1 [Example 4, 2-((1-(Methylsulfonyl)piperidin-4-yl)amino)-4-phenylpyrimidine-5-carbonitrile] | 10 to 50 nM | 10 to 50 nM
10 | Cn1cc(S(=O)(=O)N2CCC(Nc3ncc(C#N)c([S+]([O-])C4CCCC4)n3)CC2)cn1 (stereo not shown) [Compound 98] | < 0.5 nM | 10 to 50 nM
11 | Cn1cc(S(=O)(=O)N2CCC(Nc3ncc(C#N)c(NC(C)(C)C)n3)CC2)cn1 [Compound 42] | 10 to 50 nM | 10 to 50 nM
12 | Cn1cc(S(=O)(=O)N2CCC(Nc3ncc(C#N)c(O[C@@H]4CCOC4)n3)CC2)cn1 [Compound 89] | 10 to 50 nM | 50 to 100 nM
13 | Cn1cc(S(=O)(=O)N2CCC(Nc3ncc(C(F)(F)F)c(N[C@@H]4CCC[C@H]4O)n3)CC2)cn1 [Compound 54] | 0.5 to 2.5 nM | 10 to 50 nM
14 | Cn1cc(S(=O)(=O)N2CCC(Nc3ncc(C#N)c(O[C@@H]4CCC[C@H]4O)n3)CC2)cn1 (single isomer, unassigned) [Compound 67] | 2.5 to 10 nM | 10 to 50 nM
15 | Cn1cc(S(=O)(=O)N2CCC(Nc3ncc(C#N)c(NC4CCCC4(F)F)n3)CC2)cn1 (stereo not shown) [Compound 37] | 2.5 to 10 nM | 2.5 to 10 nM
16 | Cn1cc(S(=O)(=O)N2CCC(Nc3ncc(C#N)c(SC4CCCC4)n3)CC2)cn1 [Compound 96] | 0.5 to 2.5 nM | 2.5 to 10 nM
17 | Cn1cc(S(=O)(=O)N2CCC(Nc3ncc(C(F)F)c(O[C@H]4CCOC4)n3)CC2)cn1 [Compound 126] | 10 to 50 nM | 100 to 1000 nM
18 | Cn1cc(-c2ccc(S(=O)(=O)N3CCC(Nc4ncc(C#N)c(N[C@H]5CCC[C@@H]5O)n4)CC3)cc2)cn1 [Compound 59] | 2.5 to 10 nM | 2.5 to 10 nM
19 | CN1CC[C@@H](Oc2nc(NC3CCN(S(=O)(=O)c4cnn(C)c4)CC3)ncc2C#N)C1 [Compound 73] | 50 to 100 nM | 100 to 1000 nM
20 | CN(c1nc(NC2CCN(S(=O)(=O)c3cnn(C)c3)CC2)ncc1C#N)C1CCCC1 [Compound 39] | 0.5 to 2.5 nM | 2.5 to 10 nM
21 | CN1CC[C@H](Oc2nc(NC3CCN(S(=O)(=O)c4cnn(C)c4)CC3)ncc2C#N)C1 [Compound 74] | 10 to 50 nM | 50 to 100 nM
22 | Cn1cc(S(=O)(=O)N2CC[C@@H](Nc3ncc(C(F)(F)F)c(O[C@H]4CCOC4)n3)[C@H](F)C2)cn1 [Compound 125] | 0.5 to 2.5 nM | 10 to 50 nM
23 | C[C@H]1COCCN1c1nc(NC2CCN(S(=O)(=O)c3cnn(C)c3)CC2)ncc1C#N [Compound 75] | 10 to 50 nM | 10 to 50 nM

Row | SMILES | IC50 [1] | IC50 [2]
24 | Cn1cc(S(=O)(=O)N2CCC(Nc3ncc(C#N)c(NC4COC4)n3)CC2)cn1 [Compound 80] | 2.5 to 10 nM | 100 to 1000 nM
25 | Cn1cc(S(=O)(=O)N2CCC(Nc3ncc(C(F)(F)F)c(O[C@@H]4CCOC4)n3)CC2)cn1 [Compound 88] | 0.5 to 2.5 nM | 10 to 50 nM
26 | Cn1cc(S(=O)(=O)N2CCC(Nc3ncc(C(F)(F)F)c(O[C@H]4CCOC4)n3)[C@@H](F)C2)cn1 (stereo partly shown) [Compound 120] | 2.5 to 10 nM | 10 to 50 nM
27 | Cn1cc(S(=O)(=O)N2CCC(Nc3ncc(C(F)(F)F)c(O[C@@H]4COC[C@@H]4O)n3)CC2)cn1 (relative stereo) [Compound 111] | 2.5 to 10 nM | 50 to 100 nM
28 | Cn1cc(S(=O)(=O)N2CCC(Nc3ncc(C#N)c(NC4CCC4)n3)CC2)cn1 [Compound 76] | 2.5 to 10 nM | 10 to 50 nM
29 | CC(C)(O)c1ccc(S(=O)(=O)N2CCC(Nc3ncc(C#N)c(NC4CCCC4)n3)CC2)cc1 [Example 24, 4-(Cyclopentylamino)-2-((1-((4-(2-hydroxypropan-2-yl)phenyl)sulfonyl)piperidin-4-yl)amino)pyrimidine-5-carbonitrile] | 0.5 to 2.5 nM | 2.5 to 10 nM
30 | Cn1cc(S(=O)(=O)N2CC[C@@H](Nc3ncc(C(F)(F)F)c(O[C@H]4CCOC4)n3)[C@@H](F)C2)cn1 [Compound 128] | 10 to 50 nM | 100 to 1000 nM
31 | CN1CCN(Cc2ccc(S(=O)(=O)N3CCC(Nc4ncc(C#N)c(NC5CCCC5)n4)CC3)cc2)CC1 [Example 22, 4-(Cyclopentylamino)-2-((1-((4-((4-methylpiperazin-1-yl)methyl)phenyl)sulfonyl)piperidin-4-yl)amino)pyrimidine-5-carbonitrile] | 2.5 to 10 nM | 10 to 50 nM
32 | Cn1cc(S(=O)(=O)N2CCC(Nc3cc(N[C@H]4CCOC4)c(C#N)cn3)CC2)cn1 [Compound 164] | 10 to 50 nM | 50 to 100 nM
33 | O=S(=O)(c1cnn(S(=O)(=O)c2cn[nH]c2)c1)N1CCC(Nc2ncc(C(F)(F)F)c(O[C@H]3CCOC3)n2)CC1 [Example 26, (S)—N-(1-((1-((1H-Pyrazol-4-yl)sulfonyl)-1H-pyrazol-4-yl)sulfonyl)piperidin-4-yl)-4-((tetrahydrofuran-3-yl)oxy)-5-(trifluoromethyl)pyrimidin-2-amine] | < 0.5 nM | 2.5 to 10 nM
34 | Cn1cc(S(=O)(=O)N2CCC(Nc3ncc(C(F)(F)F)c(O[C@H]4CCOC4)n3)C(F)(F)C2)cn1 (stereo partly shown) [Compound 129] | 2.5 to 10 nM | 10 to 50 nM
35 | Cn1cc(S(=O)(=O)N2CCC(Nc3ncc(C#N)c(N[C@H]4CC[C@@H](O)C4)n3)CC2)cn1 (single isomer, unassigned) [Example 12] | 2.5 to 10 nM | 10 to 50 nM
36 | Cn1cc(S(=O)(=O)N2CCC(Nc3ncc(C#N)c(O[C@H]4CC[C@@H](O)C4)n3)CC2)cn1 (relative stereo) [Compound 58] | 0.5 to 2.5 nM | 10 to 50 nM
37 | Cn1cc(S(=O)(=O)N2CCC(Nc3ncc(C#N)c(O[C@H]4CCC[C@@H]4O)n3)CC2)cn1 (single isomer, unassigned) [Compound 66] | 2.5 to 10 nM | 10 to 50 nM
38 | C[C@@H]1COCCN1c1nc(NC2CCN(S(=O)(=O)c3cnn(C)c3)CC2)ncc1C#N [Compound 38] | 10 to 50 nM | 50 to 100 nM
39 | C[C@H](CO)Nc1nc(NC2CCN(S(=O)(=O)c3cnn(C)c3)CC2)ncc1C#N [Compound 70] | 10 to 50 nM | 50 to 100 nM
40 | Cn1cc(-c2ccc(S(=O)(=O)N3CCC(Nc4ncc(C#N)c(N[C@@H]5CC[C@@H](O)C5)n4)CC3)cc2)cn1 (single isomer, unassigned) [Compound 63] | 0.5 to 2.5 nM | 2.5 to 10 nM
41 | Cn1cc(-c2ccc(S(=O)(=O)N3CCC(Nc4ncc(C#N)c(N[C@@H]5CCC[C@@H]5O)n4)CC3)cc2)cn1 [Compound 61] | 0.5 to 2.5 nM | 2.5 to 10 nM
42 | N#Cc1cnc(NC2CCN(S(=O)(=O)c3ccccn3)CC2)nc1NC1CCCC1 [Compound 36] | 2.5 to 10 nM | 2.5 to 10 nM
43 | Cn1cc(S(=O)(=O)N2CCC(Nc3cc(O[C@H]4CCOC4)c(C#N)cn3)CC2)cn1 [Compound 158] | 2.5 to 10 nM | 10 to 50 nM
44 | Cn1cc(S(=O)(=O)N2CCC(Nc3ncc(C#N)c(O[C@@H]4CC[C@@H](O)C4)n3)CC2)cn1 (single isomer, unassigned) [Compound 57] | 2.5 to 10 nM | 10 to 50 nM
45 | Cn1cc(S(=O)(=O)N2CCC(Nc3ncc(C#N)c(N[C@@H]4CCC[C@@]4(C)O)n3)CC2)cn1 (single isomer, unassigned) [Example 20] | 10 to 50 nM | 100 to 1000 nM
46 | Cn1cc(-c2ccc(S(=O)(=O)N3CCC(Nc4ncc(C#N)c(N[C@@H]5CCC[C@H]5O)n4)CC3)cc2)cn1 [Compound 60] | 0.5 to 2.5 nM | –
